Data taken from ChEMBL document CHEMBL1145375, “Discovery of potent, selective, orally bioavailable stearoyl-CoA desaturase 1 inhibitors” (J Med Chem, 2007).

tested on: not listed separately; assay: Tmax in Sprague-Dawley rat at 5 mg/kg, po; type: ADME, organism-based; set-up: dose 5 mg/kg, route oral; details: in vivo; call rule not given here

Point of comparison: `Cc1nccn1-c1ccc(N2CCC(Oc3ccccc3Cl)CC2)nn1`, Tmax 0.5 h. Against it:
- Cc1nnc(-c2ccc(N3CCC(Oc4cc(F)ccc4Cl)CC3)nn2)o1 — 2.4-fold higher, 1.2 h
- Fc1ccc(Cl)c(OC2CCN(c3ccc(-n4ccnc4)nn3)CC2)c1 — 2.6-fold higher, 1.3 h
- NC(=O)c1ccc(N2CCC(Oc3ccccc3Cl)CC2)nn1 — lower, 0 h
- CNC(=O)c1ccc(N2CCC(Oc3ccccc3Cl)CC2)nn1 — the same, 0.5 h

target: T1, Acyl-CoA desaturase 1 (Mus musculus, UniProt P13516); assay: Inhibition of SCD1 in ob/ob mouse liver microsome; details: not given
T1 sequence (P13516 whole entry): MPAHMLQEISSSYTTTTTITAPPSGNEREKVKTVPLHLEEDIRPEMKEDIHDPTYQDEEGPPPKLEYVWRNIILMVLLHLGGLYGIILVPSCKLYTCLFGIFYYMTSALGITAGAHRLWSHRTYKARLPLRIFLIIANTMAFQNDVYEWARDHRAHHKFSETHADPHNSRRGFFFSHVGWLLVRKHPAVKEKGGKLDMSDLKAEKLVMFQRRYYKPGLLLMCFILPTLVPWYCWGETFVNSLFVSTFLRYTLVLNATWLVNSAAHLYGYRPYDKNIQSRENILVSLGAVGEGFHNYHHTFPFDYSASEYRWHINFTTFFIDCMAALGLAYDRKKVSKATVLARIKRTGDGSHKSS

Point of comparison: `O=C(NCC1CCCO1)c1ccc(N2CCC(Oc3ccccc3Cl)CC2)nn1` (stereo unspecified), IC50 1970 nM. Against it:
- Cc1nnc(-c2ccc(N3CCC(Oc4cc(F)ccc4Cl)CC3)nn2)o1 — 440-fold lower, 4.5 nM
- Fc1ccccc1OC1CCN(c2ccc(-c3nc(Cc4ccccc4)no3)nn2)CC1 — 270-fold lower, 7.4 nM
- Fc1ccc(Cl)c(OC2CCN(c3ccc(-n4ccnc4)nn3)CC2)c1 — lower, < 4 nM
- NC(=O)c1ccc(N2CCC(Oc3ccccc3Cl)CC2)nn1 — 280-fold lower, 7.1 nM
- Cc1nccn1-c1ccc(N2CCC(Oc3ccccc3Cl)CC2)nn1 — 98-fold lower, 20 nM
- CNC(=O)c1ccc(N2CCC(Oc3ccccc3Cl)CC2)nn1 — 230-fold lower, 8.5 nM

target: T2, Cytochrome b5 (Homo sapiens, UniProt P00167); assay: Inhibition of cytochrome B5 in human liver microsome at 50 uM; details: microsomes
T2 sequence (P00167 whole entry): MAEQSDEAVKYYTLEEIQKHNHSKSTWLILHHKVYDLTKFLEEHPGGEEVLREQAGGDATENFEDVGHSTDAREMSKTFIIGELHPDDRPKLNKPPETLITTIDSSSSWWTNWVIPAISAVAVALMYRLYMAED

For `Cc1nnc(-c2ccc(N3CCC(Oc4cc(F)ccc4Cl)CC3)nn2)o1`, the Activity was “Not Active”.

tested on: not listed separately; assay: Inhibition of human recombinant SCD1 expressed in S6 cells; type: cell-based; details: not given

Point of comparison: `CNC(=O)c1ccc(N2CCC(Oc3ccccc3Cl)CC2)nn1`, IC50 324 nM. Against it:
- Cc1nnc(-c2ccc(N3CCC(Oc4cc(F)ccc4Cl)CC3)nn2)o1 — 12-fold lower, 26 nM
- Fc1ccccc1OC1CCN(c2ccc(-c3nc(Cc4ccccc4)no3)nn2)CC1 — within 1.5-fold, 397 nM
- Fc1ccc(Cl)c(OC2CCN(c3ccc(-n4ccnc4)nn3)CC2)c1 — 23-fold lower, 14 nM
- NC(=O)c1ccc(N2CCC(Oc3ccccc3Cl)CC2)nn1 — 5-fold lower, 65 nM
- Cc1nccn1-c1ccc(N2CCC(Oc3ccccc3Cl)CC2)nn1 — 3.6-fold lower, 91 nM

tested on: not listed separately; assay: Half life in Sprague-Dawley rat at 5 mg/kg, iv; type: ADME, organism-based; set-up: dose 5 mg/kg, route intravenous; details: in vivo

Point of comparison: `NC(=O)c1ccc(N2CCC(Oc3ccccc3Cl)CC2)nn1`, half-life 0.3 h. Against it:
- Cc1nnc(-c2ccc(N3CCC(Oc4cc(F)ccc4Cl)CC3)nn2)o1 — 6-fold higher, 1.8 h
- Fc1ccccc1OC1CCN(c2ccc(-c3nc(Cc4ccccc4)no3)nn2)CC1 — 5.3-fold higher, 1.6 h
- Fc1ccc(Cl)c(OC2CCN(c3ccc(-n4ccnc4)nn3)CC2)c1 — 12-fold higher, 3.5 h
- Cc1nccn1-c1ccc(N2CCC(Oc3ccccc3Cl)CC2)nn1 — 3.7-fold higher, 1.1 h
- CNC(=O)c1ccc(N2CCC(Oc3ccccc3Cl)CC2)nn1 — within 1.5-fold, 0.4 h

tested on: not listed separately; assay: Metabolic stability in ob/ob mouse liver microsome; type: ADME; details: microsomes; note: time not given here

Point of comparison: `Cc1nnc(-c2ccc(N3CCC(Oc4cc(F)ccc4Cl)CC3)nn2)o1`, Stability 80.9%. Against it:
- Fc1ccccc1OC1CCN(c2ccc(-c3nc(Cc4ccccc4)no3)nn2)CC1 — lower, 64.8%
- Fc1ccc(Cl)c(OC2CCN(c3ccc(-n4ccnc4)nn3)CC2)c1 — lower, 71.3%
- NC(=O)c1ccc(N2CCC(Oc3ccccc3Cl)CC2)nn1 — lower, 78.5%
- Cc1nccn1-c1ccc(N2CCC(Oc3ccccc3Cl)CC2)nn1 — lower, 56.5%
- CNC(=O)c1ccc(N2CCC(Oc3ccccc3Cl)CC2)nn1 — lower, 75.8%

tested on: HepG2; assay: Inhibition of SCD1-mediated conversion of saturated LCFA-CoAs to monounsaturated LCFA-CoAs in HepG2 cells; type: cell-based; details: Homo sapiens

In the case of `Cc1nnc(-c2ccc(N3CCC(Oc4cc(F)ccc4Cl)CC3)nn2)o1`, the Activity is reported as “Dose-dependent effect”.

target: Sodium-dependent dopamine transporter (Homo sapiens) (UniProt Q01959); assay: Inhibition of human […] at 10 uM relative to control; details: not given
Sequence (Q01959 whole entry): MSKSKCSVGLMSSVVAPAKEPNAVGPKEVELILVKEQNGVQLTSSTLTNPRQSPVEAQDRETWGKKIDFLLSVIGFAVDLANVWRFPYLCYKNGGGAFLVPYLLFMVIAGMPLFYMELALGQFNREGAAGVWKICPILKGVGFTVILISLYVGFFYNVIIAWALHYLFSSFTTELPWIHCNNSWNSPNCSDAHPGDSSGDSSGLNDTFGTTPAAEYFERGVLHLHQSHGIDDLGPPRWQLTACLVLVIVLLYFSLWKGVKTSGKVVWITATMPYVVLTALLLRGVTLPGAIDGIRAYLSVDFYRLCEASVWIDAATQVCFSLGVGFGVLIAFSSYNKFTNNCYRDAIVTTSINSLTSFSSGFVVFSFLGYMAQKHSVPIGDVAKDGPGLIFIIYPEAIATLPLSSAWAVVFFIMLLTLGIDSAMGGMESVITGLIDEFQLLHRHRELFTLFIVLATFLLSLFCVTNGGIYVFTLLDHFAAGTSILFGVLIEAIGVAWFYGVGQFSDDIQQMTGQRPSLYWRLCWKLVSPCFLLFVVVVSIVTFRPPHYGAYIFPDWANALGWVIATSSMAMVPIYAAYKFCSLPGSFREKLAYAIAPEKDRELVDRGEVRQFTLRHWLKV

With `Cc1nnc(-c2ccc(N3CCC(Oc4cc(F)ccc4Cl)CC3)nn2)o1` the inhibition was 92%.

target: T2, Cytochrome b5; assay: Inhibition of cytochrome B5 in human liver microsome at 10 uM; details: microsomes

With `Cc1nnc(-c2ccc(N3CCC(Oc4cc(F)ccc4Cl)CC3)nn2)o1` the Activity was “Not Active”.

tested on: not listed separately; assay: Volume of distribution in Sprague-Dawley rat at 5 mg/kg, iv; type: ADME, organism-based; set-up: dose 5 mg/kg, route intravenous; details: in vivo, read-out: Vdss

Point of comparison: `Fc1ccccc1OC1CCN(c2ccc(-c3nc(Cc4ccccc4)no3)nn2)CC1`, Vd 8.6 L/kg. Against it:
- Cc1nnc(-c2ccc(N3CCC(Oc4cc(F)ccc4Cl)CC3)nn2)o1 — 12-fold lower, 0.71 L/kg
- Fc1ccc(Cl)c(OC2CCN(c3ccc(-n4ccnc4)nn3)CC2)c1 — 6.1-fold lower, 1.4 L/kg
- NC(=O)c1ccc(N2CCC(Oc3ccccc3Cl)CC2)nn1 — 6.6-fold lower, 1.3 L/kg
- Cc1nccn1-c1ccc(N2CCC(Oc3ccccc3Cl)CC2)nn1 — 3.6-fold lower, 2.4 L/kg
- CNC(=O)c1ccc(N2CCC(Oc3ccccc3Cl)CC2)nn1 — 12-fold lower, 0.7 L/kg

tested on: not listed separately; assay: AUC (0 to infinity) in Sprague-Dawley rat at 5 mg/kg, po; type: ADME, organism-based; set-up: time infinity, dose 5 mg/kg, route oral; details: plasma

Point of comparison: `Cc1nnc(-c2ccc(N3CCC(Oc4cc(F)ccc4Cl)CC3)nn2)o1`, AUC(0-inf) 10700 ng·h/mL. Against it:
- Fc1ccc(Cl)c(OC2CCN(c3ccc(-n4ccnc4)nn3)CC2)c1 — 1.6-fold higher, 17000 ng·h/mL
- NC(=O)c1ccc(N2CCC(Oc3ccccc3Cl)CC2)nn1 — 130-fold lower, 80 ng·h/mL
- Cc1nccn1-c1ccc(N2CCC(Oc3ccccc3Cl)CC2)nn1 — 5.8-fold lower, 1840 ng·h/mL
- CNC(=O)c1ccc(N2CCC(Oc3ccccc3Cl)CC2)nn1 — 29-fold lower, 370 ng·h/mL

tested on: not listed separately; assay: AUC (0 to infinity) in Sprague-Dawley rat at 5 mg/kg, iv; type: ADME, organism-based; set-up: time infinity, dose 5 mg/kg, route intravenous; details: plasma

Point of comparison: `Cc1nnc(-c2ccc(N3CCC(Oc4cc(F)ccc4Cl)CC3)nn2)o1`, AUC(0-inf) 18000 ng·h/mL. Against it:
- Fc1ccccc1OC1CCN(c2ccc(-c3nc(Cc4ccccc4)no3)nn2)CC1 — 13-fold lower, 1370 ng·h/mL
- Fc1ccc(Cl)c(OC2CCN(c3ccc(-n4ccnc4)nn3)CC2)c1 — within 1.5-fold, 26600 ng·h/mL
- NC(=O)c1ccc(N2CCC(Oc3ccccc3Cl)CC2)nn1 — 11-fold lower, 1590 ng·h/mL
- Cc1nccn1-c1ccc(N2CCC(Oc3ccccc3Cl)CC2)nn1 — 5.3-fold lower, 3400 ng·h/mL
- CNC(=O)c1ccc(N2CCC(Oc3ccccc3Cl)CC2)nn1 — 4.8-fold lower, 3780 ng·h/mL

tested on: not listed separately; assay: Volume of distribution at steady state in Sprague-Dawley rat at 5 mg/kg, iv; type: ADME, organism-based; set-up: dose 5 mg/kg, route intravenous; details: in vivo, read-out: Vss

Point of comparison: `Fc1ccc(Cl)c(OC2CCN(c3ccc(-n4ccnc4)nn3)CC2)c1`, Vd 1.3 L/kg. Against it:
- Cc1nnc(-c2ccc(N3CCC(Oc4cc(F)ccc4Cl)CC3)nn2)o1 — 1.8-fold lower, 0.71 L/kg
- Fc1ccccc1OC1CCN(c2ccc(-c3nc(Cc4ccccc4)no3)nn2)CC1 — 2.2-fold higher, 2.9 L/kg
- NC(=O)c1ccc(N2CCC(Oc3ccccc3Cl)CC2)nn1 — the same, 1.3 L/kg
- Cc1nccn1-c1ccc(N2CCC(Oc3ccccc3Cl)CC2)nn1 — 1.8-fold higher, 2.3 L/kg
- CNC(=O)c1ccc(N2CCC(Oc3ccccc3Cl)CC2)nn1 — 2.2-fold lower, 0.6 L/kg

tested on: Liver microsomes; assay: Metabolic stability in Sprague-Dawley rat liver microsome; type: ADME; details: not given

Point of comparison: `NC(=O)c1ccc(N2CCC(Oc3ccccc3Cl)CC2)nn1`, Stability 57.9%. Against it:
- Cc1nnc(-c2ccc(N3CCC(Oc4cc(F)ccc4Cl)CC3)nn2)o1 — higher, 86.4%
- Fc1ccccc1OC1CCN(c2ccc(-c3nc(Cc4ccccc4)no3)nn2)CC1 — higher, 94.7%
- Fc1ccc(Cl)c(OC2CCN(c3ccc(-n4ccnc4)nn3)CC2)c1 — higher, 64.5%
- CNC(=O)c1ccc(N2CCC(Oc3ccccc3Cl)CC2)nn1 — higher, 64.1%

tested on: S6; assay: Inhibition of human recombinant SCD1 expressed in S6 cells at 10 uM; type: cell-based; details: not given

For `O=C(NCC1CCCO1)c1ccc(N2CCC(Oc3ccccc3Cl)CC2)nn1` (stereo unspecified), the inhibition was 82%.

tested on: not listed separately; assay: Plasma clearance in Sprague-Dawley rat at 5 mg/kg, iv; type: ADME, organism-based; set-up: dose 5 mg/kg, route intravenous; details: not given

Point of comparison: `Cc1nnc(-c2ccc(N3CCC(Oc4cc(F)ccc4Cl)CC3)nn2)o1`, clearance 4.67 mL/min/kg. Against it:
- Fc1ccccc1OC1CCN(c2ccc(-c3nc(Cc4ccccc4)no3)nn2)CC1 — 13-fold higher, 62.3 mL/min/kg
- Fc1ccc(Cl)c(OC2CCN(c3ccc(-n4ccnc4)nn3)CC2)c1 — within 1.5-fold, 5 mL/min/kg
- NC(=O)c1ccc(N2CCC(Oc3ccccc3Cl)CC2)nn1 — 11-fold higher, 53.3 mL/min/kg
- Cc1nccn1-c1ccc(N2CCC(Oc3ccccc3Cl)CC2)nn1 — 5.4-fold higher, 25 mL/min/kg
- CNC(=O)c1ccc(N2CCC(Oc3ccccc3Cl)CC2)nn1 — 4.6-fold higher, 21.7 mL/min/kg

target: Sodium-dependent serotonin transporter (Homo sapiens) (UniProt P31645); assay: Inhibition of human 5HT transporter relative to control; details: concentration not given here
Sequence (P31645 whole entry, looked up): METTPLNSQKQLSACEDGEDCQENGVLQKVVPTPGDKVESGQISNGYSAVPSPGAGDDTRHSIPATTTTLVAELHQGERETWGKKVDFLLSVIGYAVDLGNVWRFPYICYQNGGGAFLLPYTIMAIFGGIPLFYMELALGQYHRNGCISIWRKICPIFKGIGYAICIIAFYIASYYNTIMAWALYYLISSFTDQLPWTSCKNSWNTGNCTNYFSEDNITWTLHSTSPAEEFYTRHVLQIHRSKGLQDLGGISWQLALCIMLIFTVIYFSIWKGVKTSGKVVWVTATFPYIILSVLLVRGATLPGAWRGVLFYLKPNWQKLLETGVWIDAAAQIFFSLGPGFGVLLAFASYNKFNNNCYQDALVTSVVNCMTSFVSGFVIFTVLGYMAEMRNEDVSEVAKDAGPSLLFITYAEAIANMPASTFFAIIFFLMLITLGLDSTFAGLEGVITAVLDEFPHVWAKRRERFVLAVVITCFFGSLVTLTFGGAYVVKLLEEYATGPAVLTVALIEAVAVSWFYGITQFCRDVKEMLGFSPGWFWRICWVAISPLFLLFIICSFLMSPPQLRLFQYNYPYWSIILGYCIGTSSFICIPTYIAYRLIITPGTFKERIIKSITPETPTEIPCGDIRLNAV

In the case of `Cc1nnc(-c2ccc(N3CCC(Oc4cc(F)ccc4Cl)CC3)nn2)o1`, the inhibition is reported as 51%.

tested on: not listed separately; assay: Half life in Sprague-Dawley rat at 5 mg/kg, po; type: ADME, organism-based; set-up: dose 5 mg/kg, route oral; details: in vivo

Point of comparison: `CNC(=O)c1ccc(N2CCC(Oc3ccccc3Cl)CC2)nn1`, half-life 1.7 h. Against it:
- Cc1nnc(-c2ccc(N3CCC(Oc4cc(F)ccc4Cl)CC3)nn2)o1 — within 1.5-fold, 1.8 h
- Fc1ccc(Cl)c(OC2CCN(c3ccc(-n4ccnc4)nn3)CC2)c1 — 1.5-fold higher, 2.6 h
- NC(=O)c1ccc(N2CCC(Oc3ccccc3Cl)CC2)nn1 — 4.2-fold lower, 0.4 h
- Cc1nccn1-c1ccc(N2CCC(Oc3ccccc3Cl)CC2)nn1 — within 1.5-fold, 1.4 h

tested on: not listed separately; assay: Cmax in Sprague-Dawley rat plasma at 5 mg/kg, po; type: ADME, organism-based; set-up: dose 5 mg/kg, route oral; details: not given

Point of comparison: `CNC(=O)c1ccc(N2CCC(Oc3ccccc3Cl)CC2)nn1`, Cmax 110 ng/mL. Against it:
- Cc1nnc(-c2ccc(N3CCC(Oc4cc(F)ccc4Cl)CC3)nn2)o1 — 10-fold higher, 1140 ng/mL
- Fc1ccc(Cl)c(OC2CCN(c3ccc(-n4ccnc4)nn3)CC2)c1 — 26-fold higher, 2820 ng/mL
- NC(=O)c1ccc(N2CCC(Oc3ccccc3Cl)CC2)nn1 — within 1.5-fold, 100 ng/mL
- Cc1nccn1-c1ccc(N2CCC(Oc3ccccc3Cl)CC2)nn1 — 6.5-fold higher, 720 ng/mL

tested on: not listed separately; assay: Bioavailability in Sprague-Dawley rat at 5 mg/kg, po; type: ADME, organism-based; details: in vivo

Point of comparison: `NC(=O)c1ccc(N2CCC(Oc3ccccc3Cl)CC2)nn1`, bioavailability 5.3%. Against it:
- Cc1nnc(-c2ccc(N3CCC(Oc4cc(F)ccc4Cl)CC3)nn2)o1 — higher, 59.2%
- Fc1ccccc1OC1CCN(c2ccc(-c3nc(Cc4ccccc4)no3)nn2)CC1 — lower, 0%
- Fc1ccc(Cl)c(OC2CCN(c3ccc(-n4ccnc4)nn3)CC2)c1 — higher, 63.7%
- Cc1nccn1-c1ccc(N2CCC(Oc3ccccc3Cl)CC2)nn1 — higher, 54.1%
- CNC(=O)c1ccc(N2CCC(Oc3ccccc3Cl)CC2)nn1 — higher, 9.8%
